From patent publication US20030050248A1 (priority 2000, published 2003)

System: S. aureus

In the case of O=C(O)CC(NC(=O)OCC1c2ccccc2-c2ccccc21)c1ccc(Br)cc1 (racemic) [(R,S)-Fmoc-3-amino-3-(4-bromophenyl)-propionic acid], the “IC50 (relative activity)” value is reported as 1.0 µg.
For O=C(O)[C@H]1[C@H](c2ccccc2)CN1C(=O)OCC1c2ccccc2-c2ccccc21 (racemic) [Reference #104, Racemic Fmoc-trans-3-phenyl-azetidine-2-carboxylic acid], the “IC50 (relative activity)” value was 3.9 µg.
In the case of O=C(O)CC(NC(=O)OCC1c2ccccc2-c2ccccc21)c1ccc(Br)cc1 (racemic) [Reference #127, (R,S)-Fmoc-3-amino-3-(4-bromophenyl)-propionic acid], the “Inhibition of α-Hemolysin production” value is reported as 1.4 (3) μg/ml.
O=C(O)[C@@H]1CC[C@H](c2ccccc2)N1C(=O)OCC1c2ccccc2-c2ccccc21 [(2S,5R)-Fmoc-5-phenyl-pyrrolidine-2-carboxylic acid] was tested, and the “IC50 (relative activity)” value was 1.0 µg.
For O=C(O)CC[C@H](Cc1ccccc1)NC(=O)OCC1c2ccccc2-c2ccccc21 [(R)-Fmoc-4-amino-5-phenyl-pentanoic acid], the “IC50 (relative activity)” value was 1.7 µg.
In the case of O=C(NC1(C(=O)O)CCCCC1)OCC1c2ccccc2-c2ccccc21 [Fmoc-1-amino-1-cyclohexane carboxylic acid], the “IC50 (relative activity)” value is reported as 0.9 µg.
CC(C)(C)OC(=O)n1cc(C[C@@H](NC(=O)OCC2c3ccccc3-c3ccccc32)C(=O)O)c2ccccc21 [Fmoc-D-Trp(Boc)-OH] was tested, and the “IC50 (relative activity)” value was 1.0 µg.
For C[C@H](NC(=O)OCC1c2ccccc2-c2ccccc21)C(=O)O [Fmoc-L-Ala-OH], the “IC50 (relative activity)” value was 6.5 µg.
For O=C(N[C@@H](Cc1ccccc1)C(=O)O)OCC1c2ccccc2-c2ccccc21 [Fmoc-L-Phe-OH], the “IC50 (relative activity)” value was 1.3 µg.
CC(C)(C)OC(=O)n1cc(C[C@H](NC(=O)OCC2c3ccccc3-c3ccccc32)C(=O)O)c2ccccc21 [Fmoc-L-Trp(Boc)-OH] was tested, and the “IC50 (relative activity)” value was 1.2 µg.
O=C(N[C@@H](Cc1c[nH]c2ccccc12)C(=O)O)OCC1c2ccccc2-c2ccccc21 [Fmoc-L-Trp-OH] was tested, and the “IC50 (relative activity)” value was 9 µg.
CC(C)[C@H](NC(=O)OCC1c2ccccc2-c2ccccc21)C(=O)O [Fmoc-L-Val-OH] was tested, and the “IC50 (relative activity)” value was 4.2 µg.
For O=C(O)[C@@H]1CCN1C(=O)OCC1c2ccccc2-c2ccccc21 [Fmoc-L-azetidine-2-carboxylic acid], the “IC50 (relative activity)” value was 12 µg.
O=C(O)[C@H]1Cc2c([nH]c3ccccc23)CN1C(=O)OCC1c2ccccc2-c2ccccc21 [Reference #18, Fmoc-D-1,2,3,4-tetrahydronorharman-3-carboxylic acid] was tested, and the “Inhibition of α-Hemolysin production” value was 2.0 (5) μg/ml.
With O=C(N[C@@H](Cc1cnc[nH]1)C(=O)O)OCC1c2ccccc2-c2ccccc21 [Reference #42, Fmoc-L-His] the “Inhibition of α-Hemolysin production” value was 47 µg/mL.
With CC(C)(C)OC(=O)n1cnc(C[C@H](NC(=O)OCC2c3ccccc3-c3ccccc32)C(=O)O)c1 [Reference #43, Fmoc-L-His(Boc)-OH] the “Inhibition of α-Hemolysin production” value was >50 µg/mL.
C[C@H](NC(=O)OCC1c2ccccc2-c2ccccc21)C(=O)O [Reference #52, Fmoc-L-Ala-OH] was tested, and the “Inhibition of α-Hemolysin production” value was 6.5 µg/mL.
CC(C)C[C@H](NC(=O)OCC1c2ccccc2-c2ccccc21)C(=O)O [Reference #67, Fmoc-L-Leu-OH] was tested, and the “Inhibition of α-Hemolysin production” value was 2.1 (4) μg/ml.
CC(C)(C)OC(=O)n1cc(C[C@@H](NC(=O)OCC2c3ccccc3-c3ccccc32)C(=O)O)c2ccccc21 [Reference #78, Fmoc-D-Trp(Boc)-OH] was tested, and the “Inhibition of α-Hemolysin production” value was 1.3 (5) μg/ml.
O=C(N[C@@H](Cc1ccc(Cl)cc1)C(=O)O)OCC1c2ccccc2-c2ccccc21 [Reference #92, Fmoc-4-chloro-L-D-phenylalanine] was tested, and the “Inhibition of α-Hemolysin production” value was 1.6 (5) μg/ml.
In the case of O=C(O)[C@@H]1CCN1C(=O)OCC1c2ccccc2-c2ccccc21 [Reference #120, Fmoc-L-azetidine-2-carboxylic acid], the “Inhibition of α-Hemolysin production” value is reported as 12.0 µg/mL.
